The test has as its target Sushi domains (SD1/2) protein. Kind of test: Fluorescence polarization (FP) competition assay with AJAP-1probe, calculated Ki. The class given is binding. How it is done:
Fluorescence polarization (FP). FP assay was employed to determine the binding affinity of peptides in flat bottom black 384-well plates (Corning Life Science) using a Safire2 plate reader (Tecan). All experiments were conducted in 1×PBS (pH 7.4) containing 1% bovine serum albumin (BSA) at rt. The fluorescence polarization values were measured using excitation/emission wavelengths of 530/580 nm. The instrumental Z-factor was adjusted to obtain the maximum fluorescence intensity and the G-factor was calibrated to give an initial millipolarization value of 20 mP. All FP assays including saturation or competition experiments were performed using 25 nM of TAMRA labeled peptides as probes. For saturation assay, the millipolarization values were measured after mixing of probes with 12 serial 1 to 1 diluted concentrations of Sushi domains (SD1/2) protein. All experiments were performed in triplicate and the data were plotted to the one-site binding model using GraphPad Prism 9 to calculate the Kd of probes. […] The experiments were performed at least in triplicate and the data were fitted to the sigmoidal dose response curve using GraphPad Prism 9 to obtain the IC50 of peptides. The Ki values were calculated according to Nikolovska-Coleska et al^310.

Setting [1] is: Table 9, Ala-, D-amino acids and N-methylation scans of PIANPWT, read-out: Ki (nM) mean ± SEM.
The mark [2] stands for this setting: Table 11, deep mutational scanning validation variants of AJAP-1WT, read-out: Ki (nM) mean ± SEM.
[3] abbreviates: Table 3, SPOT hit validation and previously reported peptides, read-out: Ki (nM) mean ± SEM.
The mark [4] stands for this setting: CPP tagged peptides overview, SD1/2 binding affinity, mean ± SEM, n ≥ 3, read-out: Ki.
[5] abbreviates: Table 14, CPPs tagged peptides, read-out: Ki (nM) mean ± SEM.
Setting [6] is: Table 8, Ala-, D-amino acids and N-methylation scans of AJAP-1WT, read-out: Ki (nM) mean ± SEM.

Several values for one entry are separate records, joined by “and”; a condition that tells them apart may be missing. Equal values may be shown once. Read-outs that look alike come from different tables or passages of the source. Non-standard residues stand in square brackets, D forms with d. Residues, ends and D or L forms follow the SMILES beside them. Phe(4-NH2) = Nc1ccc(C[C@H](N)C(=O)O)cc1; NMeT = CN[C@H](C(=O)O)[C@@H](C)O; NMeD = CN[C@@H](CC(=O)O)C(=O)O; Sar = CNCC(=O)O

In patent publication US20260193293A1, “PEPTIDES CAPABLE OF INHIBITING PROTEIN-PROTEIN INTERACTIONS AT GABAB1A SUBUNIT AND USES THEREOF” (UNIVERSITY OF COPENHAGEN, priority 2022, published 2026) one finds Ki data, which are given here for 15 compounds.

For the compound `CC[C@H](C)[C@H](NC(=O)[C@H](C)NC(=O)[C@H](C)NC(=O)[C@@H]1CCCN1C(C)=O)C(=O)N[C@H](C(=O)N[C@@H](Cc1c[nH]c2ccccc12)C(=O)NCC(=O)N1CCC[C@H]1C(=O)N[C@H](C(=O)N[C@H](C(=O)N[C@@H](CO)C(=O)N[C@@H](CCCNC(=N)N)C(=O)N[C@@H](CCC(=O)O)C(=O)N[C@@H](CC(=O)O)C(N)=O)C(C)C)[C@@H](C)O)C(C)C` [PAAIVWGPTVSRED] (Ac-PAAIVWGPTVSRED-NH2), the Ki under setting [1] is 911 ± 13 nM.

As for `CC[C@H](C)[C@H](NC(=O)[C@H](C)NC(=O)[C@H](Cc1c[nH]c2ccccc12)NC(=O)[C@@H]1CCCN1C(C)=O)C(=O)N[C@H](C(=O)N[C@@H](Cc1c[nH]c2ccccc12)C(=O)NCC(=O)N1CCC[C@H]1C(=O)N(C)[C@H](C(=O)N[C@H](C(=O)N[C@@H](CO)C(=O)N[C@@H](CCCNC(=N)N)C(=O)N[C@@H](CCC(=O)O)C(=O)N[C@@H](CC(=O)O)C(N)=O)C(C)C)[C@@H](C)O)C(C)C` (Ac-PWAIVWGP[NMeT]VSRED-NH2), the Ki under setting [1] is 1260 ± 27 nM. As to “EDDSDVWW(Aphe)GADTD (Ac-EDDSDVWW[Phe(4-NH2)]GADTD-NH2; SMILES CC(=O)N[C@@H](CCC(=O)O)C(=O)N[C@@H](CC(=O)O)C(=O)N[C@@H](CC(=O)O)C(=O)N[C@@H](CO)C(=O)N[C@@H](CC(=O)O)C(=O)N[C@H](C(=O)N[C@@H](Cc1c[nH]c2ccccc12)C(=O)N[C@@H](Cc1c[nH]c2ccccc12)C(=O)N[C@@H](Cc1ccc(N)cc1)C(=O)NCC(=O)N[C@@H](C)C(=O)N[C@@H](CC(=O)O)C(=O)N[C@H](C(=O)N[C@@H](CC(=O)O)C(N)=O)[C@@H](C)O)C(C)C)”, the Ki (Table 16, ncAAs incorporated peptides, read-out: Ki (nM) mean ± SEM) was 102 ± 1 nM. Turning to `CC[C@H](C)[C@H](NC(=O)[C@H](Cc1ccccc1)NC(=O)[C@H](CCC(=O)O)NC(=O)[C@@H](NC(=O)[C@H](CCC(=O)O)NC(=O)[C@@H](NC(C)=O)[C@@H](C)O)[C@@H](C)O)C(=O)N[C@@H](C)C(=O)N[C@@H](Cc1c[nH]c2ccccc12)C(=O)NCC(N)=O` (Ac-TETEFIAWG-NH2), where the note is “Table 5, elongation and truncation scan of AJAP-1 binding epitope, read-out: Ki (nM) mean ± SEM”, the Ki is 2470 ± 170 nM. Turning to `CC[C@H](C)[C@H](NC(=O)[C@H](Cc1ccccc1)NC(=O)[C@H](CCC(=O)O)NC(=O)[C@@H](NC(=O)[C@H](CCC(=O)O)NC(C)=O)[C@@H](C)O)C(=O)N[C@@H](C)C(=O)N[C@@H](Cc1c[nH]c2ccccc12)C(=O)NCC(=O)N1CCC[C@H]1C(=O)N[C@H](C(=O)NCC(=O)N[C@@H](CC(=O)O)C(=O)N[C@@H](CCC(=O)O)C(=O)N[C@@H](Cc1c[nH]c2ccccc12)C(N)=O)[C@@H](C)O` (Ac-ETEFIAWGPTGDEW-NH2), under setting [2], the Ki is 54 ± 2 nM. For the compound `CC(=O)N[C@@H](CC(=O)O)C(=O)N[C@@H](CC(=O)O)C(=O)N[C@@H](CO)C(=O)N[C@@H](CC(=O)O)C(=O)N[C@H](C(=O)N[C@@H](Cc1c[nH]c2ccccc12)C(=O)N[C@@H](Cc1c[nH]c2ccccc12)C(=O)NCC(=O)NCC(N)=O)C(C)C` (Ac-DDSDVWWGG-NH2), under setting [3], the Ki was 2630 ± 97 nM. Take `CC(=O)N[C@@H](CCC(=O)O)C(=O)N[C@@H](CCC(=O)O)C(=O)N[C@@H](CC(=O)O)C(=O)N[C@@H](CC(=O)O)C(=O)N[C@@H](CO)C(=O)N[C@@H](CC(=O)O)C(=O)N[C@H](C(=O)N[C@@H](Cc1c[nH]c2ccccc12)C(=O)N[C@@H](Cc1c[nH]c2ccccc12)C(=O)NCC(=O)NCC(=O)N[C@@H](C)C(=O)N[C@@H](CC(=O)O)C(=O)N[C@H](C(=O)N[C@@H](CC(=O)O)C(=O)N[C@@H](Cc1ccc(O)cc1)C(N)=O)[C@@H](C)O)C(C)C` (Ac-EEDDSDVWWGGADTDY-NH2): the Ki (Table 4, truncation and elongation scans of APP epitope, read-out: Ki (nM) mean ± SEM) is 301 ± 7 nM.

On to `CC[C@H](C)[C@H](NC(=O)[C@H](Cc1c[nH]c2ccccc12)NC(=O)[C@H](CC(=O)O)NC(=O)[C@H](CC(=O)O)NC(=O)[C@H](CC(=O)O)NC(=O)[C@H](CCC(=O)O)NC(C)=O)C(=O)N[C@@H](CC(=O)O)C(=O)N[C@@H](Cc1c[nH]c2ccccc12)C(=O)N[C@@H](Cc1ccc(O)cc1)C(=O)N[C@@H](CC(=O)O)C(=O)N[C@@H](CO)C(=O)N[C@@H](CC(=O)O)C(=O)N[C@@H](CC(=O)O)C(=O)N[C@@H](CC(=O)O)C(=O)NCC(=O)NCC(=O)NCC(=O)NCC(=O)N[C@@H](CO)C(=O)N[C@@H](CCCNC(=N)N)C(=O)N[C@@H](CCCNC(=N)N)C(=O)N[C@@H](CCCNC(=N)N)C(=O)N[C@@H](CCCNC(=N)N)C(=O)N[C@@H](CCCNC(=N)N)C(=O)N[C@@H](CCCNC(=N)N)C(=O)N[C@@H](CCCNC(=N)N)C(=O)N[C@@H](CCCNC(=N)N)C(N)=O` [Peptide 16-FL-R8] (Ac-EDDDWIDWYDSDDDGGGGSRRRRRRRR-NH2), for which the Ki reads like this: under setting [4], 118 ± 3 nM; under setting [5], 118 ± 3 nM. Turning to `CC[C@H](C)[C@H](NC(=O)[C@H](Cc1ccccc1)NC(=O)[C@H](CCC(=O)O)NC(=O)[C@@H](NC(=O)[C@H](CCC(=O)O)NC(C)=O)[C@@H](C)O)C(=O)N[C@@H](C)C(=O)N[C@@H](Cc1c[nH]c2ccccc12)C(=O)NCC(=O)N1CCC[C@H]1C(=O)N[C@H](C(=O)NCC(=O)N[C@@H](CC(=O)O)C(=O)N[C@@H](CC(N)=O)C(=O)N[C@@H](CC(=O)O)C(N)=O)[C@@H](C)O`, the Ki under setting [2] is 39 ± 1 nM. In the case of `CC(=O)N[C@@H](CCC(=O)O)C(=O)N[C@@H](CCC(=O)O)C(=O)N[C@@H](CC(=O)O)C(=O)N[C@@H](CC(=O)O)C(=O)N[C@@H](CO)C(=O)N[C@@H](CC(=O)O)C(=O)N[C@H](C(=O)N[C@@H](Cc1c[nH]c2ccccc12)C(=O)N[C@@H](Cc1c[nH]c2ccccc12)C(=O)NCC(=O)NCC(=O)N[C@@H](C)C(=O)N[C@@H](CC(=O)O)C(=O)N[C@H](C(=O)N[C@@H](CC(=O)O)C(=O)N[C@@H](Cc1ccc(O)cc1)C(=O)N[C@@H](C)C(=O)N[C@@H](CC(=O)O)C(N)=O)[C@@H](C)O)C(C)C` [Peptide 36] (Ac-EEDDSDVWWGGADTDYAD-NH2), the Ki under setting [3] is 244 ± 13 nM; the Ki (Table 4, truncation and elongation scans of APP epitope, listed as EEDDSDVWWGGADTDYAD, read-out: Ki (nM) mean ± SEM) is 244 nM and 233 nM. As to `CC[C@H](C)[C@H](NC(=O)[C@H](Cc1ccccc1)NC(=O)[C@H](CCC(=O)O)NC(=O)[C@@H](NC(=O)[C@H](CCC(=O)O)NC(C)=O)[C@@H](C)O)C(=O)N[C@@H](C)C(=O)N[C@@H](Cc1c[nH]c2ccccc12)C(=O)NCC(=O)N1CCC[C@H]1C(=O)N[C@H](C(=O)NCC(=O)N[C@@H](CC(=O)O)C(=O)N[C@@H](CCC(=O)O)C(=O)N[C@@H](Cc1ccccc1)C(N)=O)[C@@H](C)O` (Ac-ETEFIAWGPTGDEF-NH2), the Ki under setting [2] was 48 ± 1 nM. On to `CC[C@H](C)[C@H](NC(=O)[C@H](Cc1ccccc1)NC(=O)[C@H](CCC(=O)O)NC(=O)[C@@H](NC(=O)[C@H](CCC(=O)O)NC(C)=O)[C@@H](C)O)C(=O)N[C@@H](C)C(=O)N[C@@H](Cc1c[nH]c2ccccc12)C(=O)NCC(=O)N1CCC[C@H]1C(=O)N[C@H](C(=O)NCC(=O)N[C@@H](CC(=O)O)C(=O)N[C@@H](C)C(=O)N[C@@H](CC(=O)O)C(N)=O)[C@@H](C)O` (Ac-ETEFIAWGPTGDAD-NH2), for which, under setting [6], the Ki was 38 ± 1 nM. As to `CC(=O)N[C@@H](CCC(=O)O)C(=O)N[C@@H](CC(=O)O)C(=O)N[C@@H](CC(=O)O)C(=O)N[C@@H](CO)C(=O)N[C@@H](CC(=O)O)C(=O)N[C@H](C(=O)N[C@@H](Cc1c[nH]c2ccccc12)C(=O)N[C@@H](Cc1c[nH]c2ccccc12)C(=O)NCC(=O)NCC(=O)N[C@@H](C)C(=O)N(C)[C@@H](CC(=O)O)C(=O)N[C@H](C(=O)N[C@@H](CC(=O)O)C(N)=O)[C@@H](C)O)C(C)C` (Ac-EDDSDVWWGGA[NMeD]TD-NH2), the Ki (Table 7, Ala-, D-amino acids and N-methylation scans of APPWT, read-out: Ki (nM) mean ± SEM) was 403 ± 14 nM. Regarding `CC[C@H](C)[C@H](NC(=O)[C@H](Cc1ccccc1)NC(=O)[C@H](CCC(=O)O)NC(=O)[C@@H](NC(=O)[C@H](CCC(=O)O)NC(C)=O)[C@@H](C)O)C(=O)N[C@@H](C)C(=O)N[C@@H](Cc1c[nH]c2ccccc12)C(=O)NCC(=O)N(C)CC(=O)N[C@H](C(=O)NCC(=O)N[C@@H](CC(=O)O)C(=O)N[C@@H](CCC(=O)O)C(=O)N[C@@H](CC(=O)O)C(N)=O)[C@@H](C)O` [Peptide 38] (Ac-ETEFIAWG[Sar]TGDED-NH2), the Ki is, setting by setting: (Table 1, affinity maturation, mean ± SEM, n ≥ 3, read-out: Ki) 32 ± 2 nM; under setting [6], 32 ± 2 nM; (Table 13, peptides for affinity maturation, read-out: Ki (nM) mean ± SEM) 32 ± 2 nM. Take `CC[C@H](C)[C@H](NC(=O)[C@H](Cc1c[nH]c2ccccc12)NC(=O)[C@H](CC(=O)O)NC(=O)[C@H](CC(=O)O)NC(=O)[C@H](CC(=O)O)NC(=O)[C@H](CCC(=O)O)NC(=O)[C@H](CO)NC(=O)CNC(=O)CNC(=O)CNC(=O)CNC(=O)[C@H](CCCNC(=N)N)NC(=O)[C@H](CCCNC(=N)N)NC(=O)[C@H](CCCNC(=N)N)NC(=O)[C@H](CCCNC(=N)N)NC(=O)[C@H](CCCNC(=N)N)NC(=O)[C@H](CCCNC(=N)N)NC(=O)[C@H](CCCNC(=N)N)NC(=O)[C@H](CCCNC(=N)N)NC(C)=O)C(=O)N[C@@H](CC(=O)O)C(=O)N[C@@H](Cc1c[nH]c2ccccc12)C(=O)NCC(=O)N1CCC[C@H]1C(=O)N[C@H](C(=O)N[C@@H](CO)C(=O)N[C@@H](CC(=O)O)C(=O)N[C@@H](CC(=O)O)C(=O)N[C@@H](CC(=O)O)C(N)=O)[C@@H](C)O` [Peptide R8-FL-17] (Ac-RRRRRRRRGGGGSEDDDWIDWGPTSDDD-NH2): the Ki is, setting by setting: under setting [4], 140 ± 4 nM; under setting [5], 140 ± 4 nM.
